Consider two compounds from US20240156767A1, “SCREENING METHOD FOR GLP-1 SECRETION REGULATION AGENT, GLP-1 SECRETION REGULATION AGENT, COMPOSITION FOR PREVENTING OR AMELIORATING DIABETES, OBESITY, POSTPRANDIAL HYPERGLYCEMIA, NEURODEGENERATIVE DISEASE, HYPOGLYCEMIA, ADIPOSITY, OR NESIDIOBLASTOSIS, METHOD FOR PROMOTING SECRETION OF GLP-1 IN …” (The Nisshin OilliO Group, Ltd., priority 2021, published 2024).

The subject of one test is STC-1 cells. In words: Cell culture test: GLP-1 secretion from enteroendocrine STC-1 cells (ELISA). In kind it is cell-based. The following applies: for GLP-1 CONCENTRATION: 30 minutes after sample, mean±standard error; for Effect on GLP-1 secretion from STC-1 cells (in words): 0.01-1.0 mM. The method, then: By carrying out a cell culture test (in vitro test) by the following method, and administering various medium chain fatty acids (capric acid or lauric acid, both are a free form) to enteroendocrine cells (STC-1 cells), an effect of each medium chain fatty acid on GLP-1 secretion was examined. The above medium chain fatty acids correspond to GPR84 agonists. To the same dimethyl sulfoxide (1 ml) as in the (1-1) above, 172 mg of capric acid (trade name “Decanoic Acid <Capric Acid>”, manufactured by New Check Prep) was added to obtain 1000 mM of capric acid samples. A 1000 mM capric acid sample (0.1 ml) was added to dimethylsulfoxide (0.9 ml) to obtain a 100 mM capric acid sample. A 100 mM capric acid sample (0.1 ml) was added to dimethylsulfoxide (0.9 ml) to obtain a 10 mM capric acid sample. Note here that when capric acid was added to dimethylsulfoxide, a mixture was mixed while heating to prepare a sample having a uniform capric acid concentration. To the same dimethylsulfoxide (1 ml) as in the (1-1) above, 200 mg of lauric acid (trade name “Dodecanoic Acid <Lauric Acid>”, manufactured by New Check Prep) was added to obtain 1000 mM of lauric acid sample. A 1000 mM lauric acid sample (0.1 ml) was added to dimethylsulfoxide (0.9 ml) to obtain a 100 mM lauric acid sample. A 100 mM lauric acid sample (0.1 ml) was added to dimethylsulfoxide (0.9 ml) to obtain a 10 mM lauric acid sample. Note here that when lauric acid was added to dimethyl sulfoxide, the mixture was mixed while heating to prepare a sample having a uniform lauric acid concentration. STC-1 cells (trade name “STC-1”, manufactured by American Type Culture Collection) were cultured in a medium at 37° C. in 5% CO2 for 48 hours to obtain STC-1 cells for testing. Note here that as the medium, a DMEM medium (trade name “Dulbecco's Modified Eagle Medium (High Glucose)”, manufactured by Sigma-Aldrich) including 15% horse serum (trade name “Horse Serum, New Zealand origin”, manufactured by Gibco) and 5% fetal bovine serum (trade name “Fetal Bovine Serum (FBS) Standard, Origin South America”, manufactured by Cosmo Bio) was used. The culture medium for STC-1 cells was replaced with a serum-free medium (300 μl/well), starvation was carried out for 30 minutes, then the serum-free medium was replaced with a new serum-free medium (300 μl/well), and 0.3 μl each of any one of samples was added to each well. Thirty minutes after administration of the sample, the medium was collected and mixed in a 1.5 ml tube in which 3 μL of DPP4 inhibitor (trade name “DPP IV Inhibitor”, manufactured by Sigma-Aldrich) had been placed in advance. Then, each tube was centrifuged at 4° C. at 1,000×g for 5 minutes, and the supernatant was collected in a new 1.5 ml tube. GLP-1 concentration (nM) in the collected supernatant was measured. Note here that the GLP-1 concentration was measured by ELISA method using a commercially available kit (trade name “Glucagon Like Peptide-1 (Active) ELISA”, manufactured by Sigma-Aldrich). In the data of FIG. 1 and Table 1, the measured values of GLP-1 concentration are expressed as “mean±standard error”. Dunnet's test was used to test significant differences between trials, and significant differences were determined to exist when the risk rate was less than 5% (*p<0.05). Also, the sample concentrations in FIG. 1 and Table 1 indicate the concentrations in the medium in the cell culture test.
In general terms: In an ELISA, binding on a coated surface is turned into a signal by an enzyme label.

A further test relates to wild-type mice. As to the kind of experiment: Administration test: plasma GLP-1 concentration in wild-type mice (ELISA). The note with it: WT mice, 1000 mg/kg oral; for Relative GLP-1 (plasma GLP-1 concentration relative to before administration = 1): 120 minutes after administration, mean±standard error. In kind it is in vivo. The method, then:
An administration test was carried out by the following method to examine an effect of administration of various medium chain fatty acids (capric acid or lauric acid, both are a free form) to mice on plasma GLP-1 secretion. The above medium chain fatty acids correspond to GPR84 agonists. A control sample (carboxymethylcellulose), a capric acid sample, and a lauric acid sample were prepared in the same manner as in the <Test 2> above. Based on the following method, any one of a control sample, a capric acid sample, and a lauric acid sample was administered to mice in each group. In this test, two types of mice, that is, wild-type mice and GPR84 knockout mice, were prepared. As wild-type mice, 18 C57BL/6 male mice at 7- to 9-weeks old (purchased from Japan SLC, Inc.) were used. As the GPR84 knockout mice, 12 mice were prepared using C57BL/6 according to the method by Wang et al. (Pharmacological Research Volume 164, February 2021, 105406). Furthermore, the age in weeks of the GPR84 knockout mice was the same as that of the wild-type mice. Each mouse was acclimatized for one week, and then divided into six groups (a control sample-administered group, a capric acid sample-administered group, and a lauric acid sample administration group for each of the wild-type mice and the GPR84 knockout mice) so that average value of the body weight is uniform in each group. Note here that the mice were reared in plastic cages under an environment of temperature of 24±1° C., humidity of 50±10%, and a 12-hour light-dark cycle (lighting from 8:00 to 20:00). Water and solid feed (trade name “CLEA Rodent Diet CE-2 for mice, rats and hamsters”, manufactured by CLEA Japan Co., Ltd.) were fed ad libitum. However, the day before the glucose tolerance test, fasting was started from 17:00, and on the day of the test, the administration was started from 10:00. Each sample (any one of a control sample, a capric acid sample, and a lauric acid sample) was administered to each group of mice after blood was collected from the tail vein. […] Plasma was prepared by a conventional method from the blood obtained before and after sample administration, and the plasma GLP-1 concentration (pM) was measured. The plasma GLP-1 concentration was measured by ELISA using a commercially available kit (trade name “Glucagon Like Peptide-1 (Active) ELIS”, manufactured by Sigma-Aldrich). The data in FIG. 3 and Table 3 are expressed as relative values (Relative GLP-1) when the average value of plasma GLP-1 concentration before administration of each sample is set to “1”, and expressed as “mean±standard error of the relative values”. Dunnet's test was used to test significant differences between trials, and significant differences were determined to exist when the risk rate was less than 5% (*p<0.05). […]

In the case of `CCCCCCCCCC(=O)O` [Capric acid, capric acid (n-decanoic acid)], the “GLP-1 CONCENTRATION” value is 1.235 ± 0.120 nM in the test on STC-1 cells (0.01 mM in medium), 1.517 ± 0.005 nM with STC-1 cells (0.1 mM in medium) and 4.629 ± 0.087 * nM in the test with STC-1 cells (1.0 mM in medium). Besides, in the test on STC-1 cells, the “Effect on GLP-1 secretion from STC-1 cells (in words)” value is “promoted GLP-1 secretion”. Moreover, the “Effect on plasma GLP-1 concentration (in words)” value in the test on wild-type mice is reported as “significantly increased the plasma GLP-1 concentration”. The “Relative GLP-1 (plasma GLP-1 concentration relative to before administration = 1)” value in the test on wild-type mice is given as 1.65 ± 0.29 *.
Consider `CCCCCCCCCCCC(=O)O` [Lauric acid, lauric acid], for which the “GLP-1 CONCENTRATION” value in the test with STC-1 cells (0.01 mM in medium) is on record as 1.827 ± 0.060 * nM; in the test on STC-1 cells (0.1 mM in medium), 3.915 ± 0.197 * nM; in the test on STC-1 cells (1.0 mM in medium), 4.268 ± 0.084 * nM. Also, in the test with STC-1 cells, the “Effect on GLP-1 secretion from STC-1 cells (in words)” value was “promoted GLP-1 secretion”. For the same compound, the “Effect on plasma GLP-1 concentration (in words)” value with wild-type mice is “significantly increased the plasma GLP-1 concentration”. The “Relative GLP-1 (plasma GLP-1 concentration relative to before administration = 1)” value in the test with wild-type mice is given as 3.02 ± 0.67 *.
